From patent publication US20230139171A1 (SITA Information Networking Computing UK Limited, priority 2019, published 2023)

Assays:
Assay type in all cases: cell-based
[1] = molecular target: T1, human TLR7 (Homo sapiens, UniProt Q9NYK1); assay: TLR7 inhibition reporter assay (HEK-Blue cells, SEAP reporter, gardiquimod stimulation); settings: HEK-Blue cells overexpressing human TLR7, SEAP reporter, gardiquimod 7.5 μM; read-out: TLR7 IC50
T1 construct: host or cells: HEK-Blue cells
T1 sequence (Q9NYK1 27-1049): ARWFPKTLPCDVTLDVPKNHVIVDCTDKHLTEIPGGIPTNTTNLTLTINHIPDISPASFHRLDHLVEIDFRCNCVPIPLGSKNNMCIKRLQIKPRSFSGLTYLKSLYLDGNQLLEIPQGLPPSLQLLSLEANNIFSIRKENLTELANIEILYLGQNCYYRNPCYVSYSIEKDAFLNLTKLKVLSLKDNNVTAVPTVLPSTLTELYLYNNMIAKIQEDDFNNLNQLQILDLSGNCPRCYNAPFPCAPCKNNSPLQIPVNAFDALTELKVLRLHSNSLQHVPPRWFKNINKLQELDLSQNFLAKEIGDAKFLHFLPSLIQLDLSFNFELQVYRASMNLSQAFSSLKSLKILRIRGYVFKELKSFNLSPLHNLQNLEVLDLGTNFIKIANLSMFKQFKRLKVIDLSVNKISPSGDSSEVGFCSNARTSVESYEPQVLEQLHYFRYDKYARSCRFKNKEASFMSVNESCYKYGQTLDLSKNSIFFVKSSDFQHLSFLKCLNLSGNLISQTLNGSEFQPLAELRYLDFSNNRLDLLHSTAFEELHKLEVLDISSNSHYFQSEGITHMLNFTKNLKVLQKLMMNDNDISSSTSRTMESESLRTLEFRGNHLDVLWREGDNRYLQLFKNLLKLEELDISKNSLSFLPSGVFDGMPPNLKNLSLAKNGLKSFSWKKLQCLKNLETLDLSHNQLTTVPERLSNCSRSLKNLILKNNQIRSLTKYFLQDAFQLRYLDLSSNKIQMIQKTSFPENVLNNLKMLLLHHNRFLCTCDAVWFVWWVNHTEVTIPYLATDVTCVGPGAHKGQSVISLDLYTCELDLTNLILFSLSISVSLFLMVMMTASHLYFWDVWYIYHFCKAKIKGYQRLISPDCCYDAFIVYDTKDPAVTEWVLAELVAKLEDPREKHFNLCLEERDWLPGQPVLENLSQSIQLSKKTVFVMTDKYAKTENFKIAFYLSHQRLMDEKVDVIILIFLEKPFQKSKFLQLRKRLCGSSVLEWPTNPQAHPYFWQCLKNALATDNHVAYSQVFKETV
Outline: (§1)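 Agonists used: gardiquimod 7.5 μM (TLR7), R848 15.9 μM (TLR8), ODN2006 5 nM (TLR9), added after 30 min room-temperature compound pre-treatment (0.05 nM–50 μM) of receptor-overexpressing HEK-Blue cells. SEAP reporter (NF-κB/AP-1 driven) read after 22 h at 37 °C; inhibition scaled between agonist+DMSO and reference-inhibitor wells.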

[2] = molecular target: T2, human TLR9 (Homo sapiens, UniProt Q9NR96); assay: TLR9 inhibition reporter assay (HEK-Blue cells, SEAP reporter, ODN2006 stimulation); settings: HEK-Blue cells overexpressing human TLR9, SEAP reporter, ODN2006 5 nM
T2 construct: host or cells: HEK-Blue cells
T2 sequence (Q9NR96 26-1032): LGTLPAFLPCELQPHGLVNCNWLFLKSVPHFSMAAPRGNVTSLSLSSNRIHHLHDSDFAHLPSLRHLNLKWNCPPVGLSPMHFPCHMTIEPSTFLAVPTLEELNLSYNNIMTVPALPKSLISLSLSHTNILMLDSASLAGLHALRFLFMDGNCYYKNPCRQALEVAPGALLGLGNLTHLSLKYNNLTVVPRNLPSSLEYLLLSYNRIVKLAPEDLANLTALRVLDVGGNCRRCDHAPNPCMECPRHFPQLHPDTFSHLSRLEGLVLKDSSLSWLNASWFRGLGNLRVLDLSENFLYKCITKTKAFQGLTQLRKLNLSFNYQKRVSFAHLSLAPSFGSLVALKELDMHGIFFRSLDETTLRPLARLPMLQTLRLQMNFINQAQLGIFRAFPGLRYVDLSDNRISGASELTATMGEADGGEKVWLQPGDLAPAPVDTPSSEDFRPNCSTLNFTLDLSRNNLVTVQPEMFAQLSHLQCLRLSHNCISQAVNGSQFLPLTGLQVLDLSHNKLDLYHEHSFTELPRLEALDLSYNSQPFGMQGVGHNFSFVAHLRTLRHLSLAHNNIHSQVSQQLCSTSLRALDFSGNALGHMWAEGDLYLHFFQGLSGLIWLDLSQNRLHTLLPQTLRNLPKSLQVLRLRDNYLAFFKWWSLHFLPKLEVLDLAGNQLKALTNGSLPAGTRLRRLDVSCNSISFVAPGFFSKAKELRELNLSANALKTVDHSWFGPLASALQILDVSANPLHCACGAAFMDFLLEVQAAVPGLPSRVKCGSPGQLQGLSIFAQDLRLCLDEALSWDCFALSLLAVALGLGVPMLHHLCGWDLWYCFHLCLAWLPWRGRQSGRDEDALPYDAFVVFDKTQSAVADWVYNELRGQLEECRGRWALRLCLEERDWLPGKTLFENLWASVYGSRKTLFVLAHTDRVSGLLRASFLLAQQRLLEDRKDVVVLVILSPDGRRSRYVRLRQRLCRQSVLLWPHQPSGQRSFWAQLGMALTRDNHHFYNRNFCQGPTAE
Outline: as §1

[3] = molecular target: T3, human TLR8 (Homo sapiens, UniProt Q9NR97); assay: TLR8 inhibition reporter assay (HEK-Blue cells, SEAP reporter, R848 stimulation); settings: HEK-Blue cells overexpressing human TLR8, SEAP reporter, R848 15.9 μM; read-out: TLR8 IC50
T3 construct: host or cells: HEK-Blue cells
T3 sequence (Q9NR97 27-1041): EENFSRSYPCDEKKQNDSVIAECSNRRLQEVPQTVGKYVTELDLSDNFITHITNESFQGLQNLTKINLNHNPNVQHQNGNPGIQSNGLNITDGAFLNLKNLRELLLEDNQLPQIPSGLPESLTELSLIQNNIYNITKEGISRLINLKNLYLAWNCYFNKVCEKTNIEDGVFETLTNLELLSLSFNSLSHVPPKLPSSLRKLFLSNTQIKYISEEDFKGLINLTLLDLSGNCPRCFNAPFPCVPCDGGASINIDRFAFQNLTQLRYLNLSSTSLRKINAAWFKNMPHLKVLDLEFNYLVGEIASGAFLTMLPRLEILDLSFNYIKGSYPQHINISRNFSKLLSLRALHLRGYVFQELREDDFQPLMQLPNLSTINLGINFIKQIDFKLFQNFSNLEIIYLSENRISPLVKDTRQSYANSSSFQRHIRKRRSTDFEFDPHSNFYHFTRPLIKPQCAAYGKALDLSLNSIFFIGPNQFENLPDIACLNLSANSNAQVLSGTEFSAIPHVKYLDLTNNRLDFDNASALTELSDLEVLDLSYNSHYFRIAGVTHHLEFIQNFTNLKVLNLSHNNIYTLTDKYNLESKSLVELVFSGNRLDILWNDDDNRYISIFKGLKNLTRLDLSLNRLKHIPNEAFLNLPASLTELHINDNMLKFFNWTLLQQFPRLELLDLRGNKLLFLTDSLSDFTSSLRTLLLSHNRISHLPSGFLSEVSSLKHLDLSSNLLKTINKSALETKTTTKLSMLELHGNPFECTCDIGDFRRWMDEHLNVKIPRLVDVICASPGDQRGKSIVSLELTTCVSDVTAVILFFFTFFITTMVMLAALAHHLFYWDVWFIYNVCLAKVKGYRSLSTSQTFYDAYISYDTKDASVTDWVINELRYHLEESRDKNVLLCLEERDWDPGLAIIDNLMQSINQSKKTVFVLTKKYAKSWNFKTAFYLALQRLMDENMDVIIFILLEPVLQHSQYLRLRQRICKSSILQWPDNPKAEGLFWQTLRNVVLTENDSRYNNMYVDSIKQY
Outline: as §1

SMILES | IC50 [1] | IC50 [2] | IC50 [3]
CNC(=O)CNC1CCC(c2nc3c(C(C)C)c(-c4cn5ncnc5c(C)c4C)[nH]c3s2)CC1 (single isomer, unassigned) [Example 209, 2-((4-(5-(7,8-dimethyl-[1,2,4]triazolo[1,5-a]pyridin-6-yl)-6-isopropyl-4H-pyrrolo[3,2-d]thiazol-2-yl)cyclohexyl)amino)-N-methylacetamide] | 0.32 nM | 4170 nM | 0.14 nM
Cc1c(-c2[nH]c3sc(C4CCC(N5CCOCC5)CC4)nc3c2C(C)C)cn2ncnc2c1C (single isomer, unassigned) [Example 212, 4-(4-(5-(7,8-dimethyl-[1,2,4]triazolo[1,5-a]pyridin-6-yl)-6-isopropyl-4H-pyrrolo[3,2-d]thiazol-2-yl)cyclohexyl) morpholine] | 0.62 nM | 7390 nM | 0.63 nM
Cc1c(-c2[nH]c3sc(C4CCC(N5CCOCC5)CC4)nc3c2C(C)C)cn2ncnc2c1C (single isomer, unassigned) [Example 213, 4-(4-(5-(7,8-dimethyl-[1,2,4]triazolo[1,5-a]pyridin-6-yl)-6-isopropyl-4H-pyrrolo[3,2-d]thiazol-2-yl)cyclohexyl) morpholine] | 4.64 nM | 25500 nM | 3.41 nM
Cc1c(-c2[nH]c3sc(C4CCC(NCC5(S(C)(=O)=O)CC5)CC4)nc3c2C(C)C)cn2ncnc2c1C (single isomer, unassigned) [Example 214, 4-(5-(7,8-dimethyl-[1,2,4]triazolo[1,5-a]pyridin-6-yl)-6-isopropyl-4H-pyrrolo[3,2-d]thiazol-2-yl)-N-((1-(methylsulfonyl)cyclopropyl)methyl) cyclohexan-1-amine] | 1.37 nM | 10300 nM | 0.39 nM
Cc1c(-c2[nH]c3sc(C4CCC(NCC5(S(C)(=O)=O)CC5)CC4)nc3c2C(C)C)cn2ncnc2c1C (single isomer, unassigned) [Example 215, 4-(5-(7,8-dimethyl-[1,2,4]triazolo[1,5-a]pyridin-6-yl)-6-isopropyl-4H-pyrrolo[3,2-d]thiazol-2-yl)-N-((1-(methylsulfonyl)cyclopropyl)methyl) cyclohexan-1-amine] | 2.3 nM | 15000 nM | 6 nM
Cc1c(-c2[nH]c3sc(C4CCC(N5CCC5)CC4)nc3c2C(C)C)cn2ncnc2c1C (single isomer, unassigned) [Example 216, 2-(4-(azetidin-1-yl)cyclohexyl)-5-(7,8-dimethyl-[1,2,4]triazolo[1,5-a]pyridin-6-yl)-6-isopropyl-4H-pyrrolo[3,2-d]thiazole] | 0.72 nM | 6520 nM | 1.02 nM
Cc1c(-c2[nH]c3sc(C4CCC(N5CCC5)CC4)nc3c2C(C)C)cn2ncnc2c1C (single isomer, unassigned) [Example 217, 2-(4-(azetidin-1-yl)cyclohexyl)-5-(7,8-dimethyl-[1,2,4]triazolo[1,5-a]pyridin-6-yl)-6-isopropyl-4H-pyrrolo[3,2-d]thiazole] | 2.41 nM | 5870 nM | 5.3 nM
Cc1c(-c2[nH]c3sc(C4CCC(N5CC(F)(F)C5)CC4)nc3c2C(C)C)cn2ncnc2c1C (single isomer, unassigned) [Example 218, 2-(4-(3,3-difluoroazetidin-1-yl)cyclohexyl)-5-(7,8-dimethyl-[1,2,4]triazolo[1,5-a]pyridin-6-yl)-6-isopropyl-4H-pyrrolo[3,2-d]thiazole] | 1.44 nM | 35900 nM | 18.6 nM
Cc1c(-c2[nH]c3sc(C4CCC(N5CC(F)(F)C5)CC4)nc3c2C(C)C)cn2ncnc2c1C (single isomer, unassigned) [Example 219, 2-(4-(3,3-difluoroazetidin-1-yl)cyclohexyl)-5-(7,8-dimethyl-[1,2,4]triazolo[1,5-a]pyridin-6-yl)-6-isopropyl-4H-pyrrolo[3,2-d]thiazole] | 637 nM | 46200 nM | 713 nM
